Data taken from publication PMC4726048 (2016).
Each block holds one compound with its values, some of them ahead of it.

Assays:
[1] = tested on: ON1 (adenosine aptamer) (DNA, aptamer) ACCTGGGGGAGTATTGCGGAGGAAGGT; assay: luminescence displacement assay (complex 1/ON1/ON2); details: 100 mM NaCl, 10 mM MgCl2, 75 mM K+, 20 mM Tris-HCl pH 7.4, 37 °C
[2] = tested on: F21T (DNA, G4) GGGTTAGGGTTAGGGTTAGGG; assay: FRET melting; details: 0.2 μM DNA; 3 μM compound
[3] = tested on: ds17 (DNA, duplex) CCAGTTCGTAGTAACCC/GGGTTACTACGAACTGG; assay: G4-FID (thiazole orange displacement); details: Tris-HCl buffer; thiazole orange displaced; 0.25 μM DNA; under 50% displaced at highest concentration tested
[4] = tested on: ON2 (DNA, G4) GGGTTTGGGACTCCCCCAGGTGGGTTTGGG; assay: G4-FID (thiazole orange displacement); details: Tris-HCl buffer; thiazole orange displaced; 0.25 μM DNA
[5] = tested on: F10T (DNA, hairpin, HEG linker between nt 8 and 9) TATAGCTATATAGCTATAT; assay: FRET melting; details: 0.2 μM DNA; 3 μM compound
[6] = tested on: central loop, 5'-G3T3G3TnG3T3G3-3', n = 15 (DNA, G4) GGGTTTGGGTTTTTTTTTTTTTTTGGGTTTGGG; assay: luminescence enhancement; details: 1 μM compound; 8.3-fold enhancement
[7] = tested on: 3'-side loop, 5'-G3T3G3T3G3TnG3-3', n = 15 (DNA, G4) GGGTTTGGGTTTGGGTTTTTTTTTTTTTTTGGG; assay: luminescence enhancement; details: 1 μM compound; 7.2-fold enhancement
[8] = tested on: 5'-side loop, 5'-G3TnG3T3G3T3G3-3', n = 15 (DNA, G4) GGGTTTTTTTTTTTTTTTGGGTTTGGGTTTGGG; assay: luminescence enhancement; details: 1 μM compound; 6.9-fold enhancement
[9] = tested on: CCR5-DEL (DNA, single strand) CTCATTTTCCATACATTAAAGATAGTCAT; assay: luminescence enhancement; details: 20 mM Tris-HCl pH 7.4; 1 μM compound, 5 μM DNA
[10] = tested on: 5'-side loop, 5'-G3TnG3T3G3T3G3-3', n = 1 (DNA, G4) GGGTGGGTTTGGGTTTGGG; assay: luminescence enhancement; details: 1 μM compound; 2.7-fold enhancement
[11] = tested on: ON2m (DNA, single strand) AAGTTTCCGACTCCCCCAGGTGCCTTTGAA; assay: luminescence enhancement; details: ON2m used in place of ON2 in adenosine assay; 80 μM adenosine
[12] = tested on: central loop, 5'-G3T3G3TnG3T3G3-3', n = 1 (DNA, G4) GGGTTTGGGTGGGTTTGGG; assay: luminescence enhancement; details: 1 μM compound; 2.4-fold enhancement
[13] = tested on: 3'-side loop, 5'-G3T3G3T3G3TnG3-3', n = 1 (DNA, G4) GGGTTTGGGTTTGGGTGGG; assay: luminescence enhancement; details: 1 μM compound; 2.3-fold enhancement
[14] = ON2 capture strand, 200 μM highest tested

Compound: Nc1nc2c(ncn2[C@@H]2O[C@H](CO)[C@@H](O)[C@H]2O)c(=O)[nH]1
- binding [1, 14]: no

Compound: Nc1ccn([C@@H]2O[C@H](CO)[C@@H](O)[C@H]2O)c(=O)n1
- binding [1, 14]: no

- ΔTm [2]: ~ 7.0 °C
- binding [3]: weak
- G4DC50 [4]: 7.0 µM
- ΔTm [5]: 3.0 °C
- binding [6]: yes
- binding [7]: yes
- binding [8]: yes
- binding [9]: weak
- binding [10]: yes
- binding [11]: weak
- binding [12]: yes
- binding [13]: yes
Compound: Cc1cccnc1-c1[c-]cccc1.Cc1cccnc1-c1[c-]cccc1.[Ir+3].c1ccc(-c2ccc3ccc4ccc(-c5ccccc5)nc4c3n2)cc1

Compound: Nc1ncnc2c1ncn2[C@@H]1O[C@H](CO)[C@@H](O)[C@H]1O
- binding ([1]; ON2 capture strand displaced): yes

Compound: O=c1ccn([C@@H]2O[C@H](CO)[C@@H](O)[C@H]2O)c(=O)[nH]1
- binding [1, 14]: no
